According to patent publication US20230117034A1, “PYRAZOLOTRIAZINES” (Bayer Aktiengesellschaft, priority 2019, published 2023):

Target: CDK12/CycK (Homo sapiens, UniProt Q9NYV4)
Experiment: CDK12/CycK high ATP kinase assay (TR-FRET, 2 mM ATP)
Format: biochemical
Conditions: 2 mM ATP (high ATP); median; read-out: CDK12/CyclinK, 2 mM ATP (high ATP), IC50-[mol/l] (median)
How it was run: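 His-tagged human CDK12/CycK (~0.75 nM) pre-incubated 15 min with compound, then 60 min at 22 °C with 2 mM ATP and 1 µM biotinylated peptide (HEPES pH 7.5, 20 mM MgCl2). EDTA stop; phospho-Ser62 antibody/Eu anti-rabbit and streptavidin-XL665 TR-FRET, 665/620 nm ratio normalised to give IC50.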

Sequence of CDK12/CycK (Q9NYV4 with tags, fused parts or gaps): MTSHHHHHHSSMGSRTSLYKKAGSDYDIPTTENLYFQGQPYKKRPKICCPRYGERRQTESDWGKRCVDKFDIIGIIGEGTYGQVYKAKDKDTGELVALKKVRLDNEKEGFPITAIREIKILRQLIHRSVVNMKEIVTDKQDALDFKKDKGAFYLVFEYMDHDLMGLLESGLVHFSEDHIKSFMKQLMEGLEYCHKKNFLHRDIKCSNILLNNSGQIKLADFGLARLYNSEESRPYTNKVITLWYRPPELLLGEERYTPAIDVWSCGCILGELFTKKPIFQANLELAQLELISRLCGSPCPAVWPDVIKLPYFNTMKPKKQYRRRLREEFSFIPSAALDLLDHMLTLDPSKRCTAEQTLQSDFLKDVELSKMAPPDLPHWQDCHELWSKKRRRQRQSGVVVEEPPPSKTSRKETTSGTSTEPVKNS
Sequence of CDK12/CycK (O75909 1-300 partner limits assumed): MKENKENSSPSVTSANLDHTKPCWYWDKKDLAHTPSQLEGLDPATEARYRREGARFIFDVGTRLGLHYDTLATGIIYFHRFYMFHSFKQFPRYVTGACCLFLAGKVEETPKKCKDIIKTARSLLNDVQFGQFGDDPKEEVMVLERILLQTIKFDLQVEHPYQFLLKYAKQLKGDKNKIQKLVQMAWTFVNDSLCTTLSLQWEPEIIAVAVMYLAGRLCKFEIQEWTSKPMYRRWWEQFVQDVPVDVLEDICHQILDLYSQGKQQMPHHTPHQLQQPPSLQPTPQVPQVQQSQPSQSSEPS

| SMILES | IC50 [µM] |
| --- | --- |
| CN1CCN(c2nc(NCc3nc4ccccc4[nH]3)n3ncc(CC(F)(F)F)c3n2)CC1 [Example 436, N-[(1H-benzimidazol-2-yl)methyl]-2-(4-methylpiperazin-1-yl)-8-(2,2,2-trifluoroethyl)pyrazolo [1,5-a][1,3,5]triazin-4-amine] | > 20 |
| Brc1cnn2c(NCc3nc4ccccc4[nH]3)nc(OC3CCNCC3)nc12 [Example 411, N-[(1H-benzimidazol-2-yl)methyl]-8-bromo-2-[(piperidin-4-yl)oxy]pyrazolo[1,5-a][1,3,5]triazin-4-amine] | > 20 |
| Brc1cnn2c(NCc3nc4ccccc4[nH]3)nc(OCC3CC3)nc12 [Example 408, N-[(1H-benzimidazol-2-yl)methyl]-8-bromo-2-(cyclopropylmethoxy)pyrazolo[1,5-a][1,3,5]triazin-4-amine] | > 20 |
| CCc1cnn2c(NCc3nc4ccccc4[nH]3)nc(N3CCOCC3)nc12 [Example 431, N-[(1H-benzimidazol-2-yl)methyl]-8-ethyl-2-(morpholin-4-yl)pyrazolo[1,5-a][1,3,5]triazin-4-amine] | 2.81 |
| CC(C)c1cnn2c(NCc3nnc(-c4ccccc4)[nH]3)nc(N(C)CC(C)(C)O)nc12 [Example 39, 2-methyl-1-{methyl[4-{[(5-phenyl-4H-1,2,4-triazol-3-yl)methyl]amino}-8-(propan-2-yl)pyrazolo[1,5-a][1,3,5]triazin-2-yl]amino}propan-2-ol] | 4.67 |
| OC[C@H]1CCCCN1c1nc(NCc2nc3ccccc3[nH]2)n2ncc(Br)c2n1 [Example 60, [(2R)-1-(4-{[(1H-benzimidazol-2-yl)methyl]amino}-8-bromopyrazolo[1,5-a][1,3,5]triazin-2-yl)piperidin-2-yl]methanol] | 1.86 |
| Cn1cc(-c2cnn3c(NCc4nc5c(F)c(F)ccc5[nH]4)nc(N4CCOCC4)nc23)cn1 [Example 418, N-[(4,5-difluoro-1H-benzimidazol-2-yl)methyl]-8-(1-methyl-1H-pyrazol-4-yl)-2-(morpholin-4-yl)pyrazolo[1,5-a][1,3,5]triazin-4-amine] | > 20 |
| FC(F)Cc1cnn2c(NCc3nc4ccccc4[nH]3)nc(N3CCOCC3)nc12.O=C(O)C(F)(F)F [Example 444, trifluoroacetic acid N-[(1H-benzimidazol-2-yl)methyl]-8-(2,2-difluoroethyl)-2-(morpholin-4-yl)pyrazolo[1,5-a][1,3,5]triazin-4-amine] | 8.51 |
| NCCOCCOCCNc1nc(NCc2nc3ccccc3[nH]2)n2ncc(Br)c2n1 [Example 412, N2-{2-[2-(2-aminoethoxy)ethoxy]ethyl}-N4-[(1H-benzimidazol-2-yl)methyl]-8-bromopyrazolo[1,5-a][1,3,5]triazine-2,4-diamine] | > 5.71 |
| COc1ccccc1-c1nnc(CNc2nc(N3CCOCC3)nc3c(Br)cnn23)[nH]1 [Example 61, 8-bromo-N-{[5-(2-methoxyphenyl)-4H-1,2,4-triazol-3-yl]methyl}-2-(morpholin-4-yl)pyrazolo[1,5-a][1,3,5]triazin-4-amine] | > 20 |
| Clc1cccc(-c2nnc(CNc3nc(N4CCOCC4)nc4c(Br)cnn34)[nH]2)c1 [Example 51, 8-bromo-N-{[5-(3-chlorophenyl)-4H-1,2,4-triazol-3-yl]methyl}-2-(morpholin-4-yl)pyrazolo[1,5-a][1,3,5]triazin-4-amine] | 1.73 |
| Cc1cnn2c(NCc3nc4c(F)c(F)ccc4[nH]3)nc(N3CC4CCC(C3)N4)nc12 [Example 400, 2-(3,8-diazabicyclo[3.2.1]octan-3-yl)-N-[(4,5-difluoro-1H-benzimidazol-2-yl)methyl]-8-methylpyrazolo[1,5-a][1,3,5]triazin-4-amine] | > 16.7 |
| N#Cc1cnn2c(NCc3nc4ccccc4[nH]3)nc(N3CCOCC3)nc12 [Example 43, 4-{[(1H-benzimidazol-2-yl)methyl]amino}-2-(morpholin-4-yl)pyrazolo[1,5-a][1,3,5]triazine-8-carbonitrile] | > 16.8 |
| FC(F)n1cc(-c2cnn3c(NCc4nc5ccccc5[nH]4)nc(N4CCOCC4)nc23)cn1 [Example 421, N-[(1H-benzimidazol-2-yl)methyl]-8-[1-(difluoromethyl)-1H-pyrazol-4-yl]-2-(morpholin-4-yl)pyrazolo[1,5-a][1,3,5]triazin-4-amine] | 8.58 |
| COC(C)(C)COc1nc(NCc2nc3ccccc3[nH]2)n2ncc(Br)c2n1 [Example 403, N-[(1H-benzimidazol-2-yl)methyl]-8-bromo-2-(2-methoxy-2-methylpropoxy)pyrazolo[1,5-a][1,3,5]triazin-4-amine] | > 20 |
| Fc1cccc2[nH]c(CNc3nc(N4CCN5CCC4CC5)nc4c(C(F)(F)F)cnn34)nc12 [Example 410, 2-(1,4-diazabicyclo[3.2.2]nonan-4-yl)-N-[(4-fluoro-1H-benzimidazol-2-yl)methyl]-8-(trifluoromethyl)pyrazolo[1,5-a][1,3,5]triazin-4-amine] | 1.58 |

| SMILES | IC50 [µM] |
| --- | --- |
| N#Cc1cccc(-c2c[nH]c(CNc3nc(N4CCOCC4)nc4c(Br)cnn34)n2)c1 [Example 42, 3-[2-({[8-bromo-2-(morpholin-4-yl)pyrazolo[1,5-a][1,3,5]triazin-4-yl]amino}methyl)-1H-imidazol-4-yl]benzonitrile] | 0.406 |
| COc1cccc2nc(CNc3nc(N4CCN(C)CC4)nc4c(-c5nccs5)cnn34)[nH]c12 [Example 416, N-[(7-methoxy-1H-benzimidazol-2-yl)methyl]-2-(4-methylpiperazin-1-yl)-8-(1,3-thiazol-2-yl)pyrazolo[1,5-a][1,3,5]triazin-4-amine] | > 20 |
| Brc1cnn2c(NCc3nc4ccccc4[nH]3)nc(OCCN3CCCC3)nc12 [Example 404, N-[(1H-benzimidazol-2-yl)methyl]-8-bromo-2-[2-(pyrrolidin-1-yl)ethoxy]pyrazolo[1,5-a][1,3,5]triazin-4-amine] | > 20 |
| Fc1ccc2[nH]c(CNc3nc(N4CCOCC4)nc4c(CC(F)F)cnn34)nc2c1F.O=C(O)C(F)(F)F [Example 425, trifluoroacetic acid N-[(4,5-difluoro-1H-benzimidazol-2-yl)methyl]-8-(2,2-difluoroethyl)-2-(morpholin-4-yl)pyrazolo[1,5-a][1,3,5]triazin-4-amine] | 2.14 |
| CC1(C)CN(c2nc(NCc3nc4ccccc4[nH]3)n3ncc(Br)c3n2)CCO1 [Example 58, N-[(1H-benzimidazol-2-yl)methyl]-8-bromo-2-(2,2-dimethylmorpholin-4-yl)pyrazolo[1,5-a][1,3,5]triazin-4-amine] | 6.44 |
| CN1CCN(c2nc(NCc3nc4cc(Cl)c(Cl)cc4[nH]3)n3ncc(-c4cnn(C)c4)c3n2)CC1 [Example 420, N-[(5,6-dichloro-1H-benzimidazol-2-yl)methyl]-2-(4-methylpiperazin-1-yl)-8-(1-methyl-1H-pyrazol-4-yl)pyrazolo[1,5-a][1,3,5]triazin-4-amine] | > 20 |
| Cc1cnn2c(NCc3nc4c(F)c(F)ccc4[nH]3)nc(N3CCOCC3)nc12 [Example 392, N-[(4,5-difluoro-1H-benzimidazol-2-yl)methyl]-8-methyl-2-(morpholin-4-yl)pyrazolo[1,5-a][1,3,5]triazin-4-amine] | 4.37 |
| COc1cccc2nc(CNc3nc(N4CCOCC4)nc4c(-c5ccnnc5)cnn34)[nH]c12.O=C(O)C(F)(F)F [Example 439, trifluoroacetic acid N-[(7-methoxy-1H-benzimidazol-2-yl)methyl]-2-(morpholin-4-yl)-8-(pyridazin-4-yl)pyrazolo[1,5-a][1,3,5]triazin-4-amine] | 3.95 |
| O=C(O)C(F)(F)F.c1ccc2[nH]c(CNc3nc(N4CCOCC4)nc4c(-c5ccnnc5)cnn34)nc2c1 [Example 438, trifluoroacetic acid N-[(1H-benzimidazol-2-yl)methyl]-2-(morpholin-4-yl)-8-(pyridazin-4-yl)pyrazolo[1,5-a][1,3,5]triazin-4-amine] | > 7.86 |
| Fc1ccc2[nH]c(CNc3nc(N4CCOCC4)nc4c(-c5cncs5)cnn34)nc2c1F.O=C(O)C(F)(F)F [Example 442, trifluoroacetic acid N-[(4,5-difluoro-1H-benzimidazol-2-yl)methyl]-2-(morpholin-4-yl)-8-(1,3-thiazol-5-yl)pyrazolo[1,5-a][1,3,5]triazin-4-amine] | 0.583 |
| CCNc1nc(NCc2ncc(-c3ccccc3)[nH]2)n2ncc(C(C)C)c2n1 [Example 34, N^2-ethyl-N^4-[(5-phenyl-1H-imidazol-2-yl)methyl]-8-(propan-2-yl)pyrazolo[1,5-a][1,3,5]triazine-2,4-diamine] | > 5.71 |
| CC(C)(O)COc1nc(NCc2nc3ccccc3[nH]2)n2ncc(Br)c2n1 [Example 398, 1-[(4-{[(1H-benzimidazol-2-yl)methyl]amino}-8-bromopyrazolo[1,5-a][1,3,5]triazin-2-yl)oxy]-2-methylpropan-2-ol] | 14.6 |
| CN1CCN(c2nc(NCc3nc4ccccc4[nH]3)n3ncc(C4CC4(F)F)c3n2)CC1 (stereo not shown) [Example 428, N-(1H-benzimidazol-2-ylmethyl)-8-(2,2-difluorocyclopropyl)-2-(4-methylpiperazin-1-yl)pyrazolo[1,5-a][1,3,5]triazin-4-amine] | > 20 |
| COc1ccccc1-c1nnc(CNc2nc(N3CCN(C)CC3)nc3c(C4CC4(F)F)cnn23)[nH]1 (stereo not shown) [Example 430, 8-(2,2-difluorocyclopropyl)-N-{[5-(2-methoxyphenyl)-4H-1,2,4-triazol-3-yl]methyl}-2-(4-methylpiperazin-1-yl)pyrazolo[1,5-a][1,3,5]triazin-4-amine] | > 20 |
| Fc1ccc2[nH]c(CNc3nc(N4CCOCC4)nc4c(-c5ccnnc5)cnn34)nc2c1F [Example 417, N-[(4,5-difluoro-1H-benzimidazol-2-yl)methyl]-2-(morpholin-4-yl)-8-(pyridazin-4-yl)pyrazolo[1,5-a][1,3,5]triazin-4-amine] | > 7.75 |
